Results published in patent US20260265265A1, “NOVEL BENZIMIDAZOLONE DERIVATIVE COMPOUND AS AUTOTAXIN INHIBITOR” (LG CHEM, LTD., priority 2023, published 2026).

Biological target: T1, Recombinant Human ENPP-2/Autotaxin (Homo sapiens, UniProt Q13822)
T1 construct: purchased R&D systems 5255-EN
Test: LysoPLD activity measurement (autotaxin enzyme inhibition, choline release, TOOS reagent)
Assay type: biochemical
Conditions: LysoPLD inhibitory activity; substrate 14:0 LysoPC; absorbance at 555 nm
Outline: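 Autotaxin lysoPLD activity was read as choline released from 14:0 LysoPC, detected by TOOS reagent absorbance. Compound was preincubated 30 min, then substrate diluted to 300 μM was added and the reaction ran 90 minutes at 37° C. Controls contained 1% DMSO.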

| Compound | IC50 [nM] |
| --- | --- |
| O=C(O)c1cccc(C2(n3c(=O)n(-c4ccc(N5CC6(CCC6)C5)cc4)c4cc(Cl)ccc43)CC2)c1 [Example 184, 3-(1-(3-(4-(2-azaspiro[3.3]heptan-2-yl)phenyl)-5-chloro-2-oxo-2,3-dihydro-1H-benzo[d]imidazol-1-yl)cyclopropyl)benzoic acid] | 10 to 100 |
| CN(C)c1ccc(-n2c(=O)n(Cc3cccc(C(=O)O)c3)c3ccc(Cl)c(F)c32)cc1 [Example 25, 3-((5-chloro-3-(4-(dimethylamino)phenyl)-4-fluoro-2-oxo-2,3-dihydro-1H-benzo[d]imidazol-1-yl)methyl)benzoic acid] | 10 to 100 |
| O=C(O)c1cccc(Cn2c(=O)n(-c3ccc(N4CCN(C(=O)C5CCC(F)(F)CC5)CC4)cc3)c3cc(Cl)ccc32)c1F [Example 143, 3-((5-chloro-3-(4-(4-(4,4-difluorocyclohexane-1-carbonyl)piperazin-1-yl)phenyl)-2-oxo-2,3-dihydro-1H-benzo[d]imidazol-1-yl)methyl)-2-fluorobenzoic acid] | 10 to 100 |
| O=C(O)c1cccc(C2(n3c(=O)n(-c4ccc(C56CC7CC(CC(C7)C5)C6)cc4)c4cc(Cl)ccc43)CC2)c1 [Example 179, 3-(1-(3-(4-((3r,5r,7r)-adamantan-1-yl)phenyl)-5-chloro-2-oxo-2,3-dihydro-1H-benzo[d]imidazol-1-yl)cyclopropyl)benzoic acid] | 100 to 1000 |
| CCCCc1ccc(-n2c(=O)n(Cc3cccc(C(=O)O)c3)c3ccc(Cl)cc32)cc1 [Example 16, 3-((3-(4-butylphenyl)-5-chloro-2-oxo-2,3-dihydro-1H-benzo[d]imidazol-1-yl)methyl)benzoic acid] | 100 to 1000 |
| CN(C)c1ccc(-n2c(=O)n(C(C)(C)c3cccc(C(=O)O)c3)c3ccc(Cl)cc32)cc1 [Example 153, 3-(2-(5-chloro-3-(4-(dimethylamino)phenyl)-2-oxo-2,3-dihydro-1H-benzo[d]imidazol-1-yl)propane-2-yl)benzoic acid] | 10 to 100 |
| CS(=O)(=O)c1ccc(-n2c(=O)n(C3(c4cccc(C(=O)O)c4)CC3)c3ncc(Cl)cc32)cc1 [Example 227, 3-(1-(6-chloro-1-(4-(methylsulfonyl)phenyl)-2-oxo-1,2-dihydro-3H-imidazo[4,5-b]pyridin-3-yl)cyclopropyl)benzoic acid] | 10 to 100 |
| CN(C)c1ccc(-n2c(=O)n(Cc3cccc(C(=O)O)c3F)c3ccc(Cl)cc32)cc1 [Example 39, 3-((5-chloro-3-(4-(dimethylamino)phenyl)-2-oxo-2,3-dihydro-1H-benzo[d]imidazol-1-yl)methyl)-2-fluorobenzoic acid] | 10 to 100 |
| O=C(O)c1ccc(F)c(Cn2c(=O)n(-c3ccccc3)c3cc(Cl)ccc32)c1 [Example 32, 3-((5-chloro-2-oxo-3-phenyl-2,3-dihydro-1H-benzo[d]imidazol-1-yl)methyl)-4-fluorobenzoic acid] | 100 to 1000 |
| O=C(O)c1cccc(Cn2c(=O)n(-c3ccc(C4CC4)cn3)c3cc(Cl)ccc32)c1 [Example 163, 3-((5-chloro-3-(5-cyclopropylpyridin-2-yl)-2-oxo-2,3-dihydro-1H-benzo[d]imidazol-1-yl)methyl)benzoic acid] | 100 to 1000 |
| O=C(O)c1cccc(Cn2c(=O)n(-c3ccc(N4CCOCC4)cc3)c3cc(Cl)cnc32)c1 [Example 162, 3-((6-chloro-1-(4-morpholinophenyl)-2-oxo-1,2-dihydro-3H-imidazo[4,5-b]pyridin-3-yl)methyl)benzoic acid] | 100 to 1000 |
| COc1ccc(-n2c(=O)n(Cc3cccc(C(=O)O)c3)c3ccc(Cl)cc32)cc1 [Example 5, 3-((5-chloro-3-(4-methoxyphenyl)-2-oxo-2,3-dihydro-1H-benzo[d]imidazol-1-yl)methyl)benzoic acid] | 10 to 100 |
| CC(C)c1ccc(-n2c(=O)n(Cc3cccc(C(=O)O)c3)c3ccc(Cl)cc32)cc1 [Example 17, 3-((5-chloro-3-(4-isopropylphenyl)-2-oxo-2,3-dihydro-1H-benzo[d]imidazol-1-yl)methyl)benzoic acid] | 100 to 1000 |
| O=C(O)c1cccc(C2(n3c(=O)n(-c4ccc(N5C(=O)OCC56CC6)cc4)c4cc(Cl)ccc43)CC2)c1 [Example 243, 3-(1-(5-chloro-2-oxo-3-(4-(5-oxo-6-oxa-4-azaspiro[2.4]heptan-4-yl)phenyl)-2,3-dihydro-1H-benzo[d]imidazol-1-yl)cyclopropyl)benzoic acid] | < 10 |
| CNC(=O)c1ccc(-n2c(=O)n(Cc3cccc(C(=O)O)c3)c3ccc(Cl)cc32)cc1 [Example 22, 3-((5-chloro-3-(4-(methylcarbamoyl)phenyl)-2-oxo-2,3-dihydro-1H-benzo[d]imidazol-1-yl)methyl)benzoic acid] | 10 to 100 |
| O=C(O)c1ccc(Cn2c(=O)n(-c3ccc(N4CCOCC4)cc3)c3c(F)c(Cl)ccc32)cc1 [Example 125, 4-((5-chloro-4-fluoro-3-(4-morpholinophenyl)-2-oxo-2,3-dihydro-1H-benzo[d]imidazol-1-yl)methyl)benzoic acid] | 100 to 1000 |
| O=C1COc2cc(-n3c(=O)n(C4(c5cc(F)cc(C(=O)O)c5)CC4)c4ccc(Cl)cc43)ccc2N1 [Example 254, 3-(1-(5-chloro-2-oxo-3-(3-oxo-3,4-dihydro-2H-benzo[b][1,4]oxazin-7-yl)-2,3-dihydro-1H-benzo[d]imidazol-1-yl)cyclopropyl)-5-fluorobenzoic acid] | < 10 |
| O=C(O)c1cc(F)cc(C2(n3c(=O)n(-c4ccc(C5CCOC5)cc4)c4cc(Cl)ccc43)CC2)c1 (stereo not drawn) [Example 249, 3-(1-(5-chloro-2-oxo-3-(4-(tetrahydrofuran-3-yl)phenyl)-2,3-dihydro-1H-benzo[d]imidazol-1-yl)cyclopropyl)-5-fluorobenzoic acid] | < 10 |
| O=C(O)c1cc(F)cc(C2(n3c(=O)n(-c4ccc(N5CC6CCC(C5)O6)cc4)c4cc(Cl)ccc43)CC2)c1 [Example 192, 3-(1-(3-(4-(8-oxa-3-azabicyclo[3.2.1]octan-3-yl)phenyl)-5-chloro-2-oxo-2,3-dihydro-1H-benzo[d]imidazol-1-yl)cyclopropyl)-5-fluorobenzoic acid] | < 10 |

Continued, values first:

| IC50 [nM] | Compound |
| --- | --- |
| < 10 | O=C(O)c1cccc(C2(n3c(=O)n(-c4ccc(C(=O)N5CCCC5)cc4)c4cc(Cl)ccc43)CC2)c1F [Example 67, 3-(1-(5-chloro-2-oxo-3-(4-(pyrrolidine-1-carbonyl)phenyl)-2,3-dihydro-1H-benzo[d]imidazol-1-yl)cyclopropyl)-2-fluorobenzoic acid] |
| < 10 | O=C(O)c1cccc(C2(n3c(=O)n(-c4ccc(-c5nnc(C6CCCC6)o5)cc4)c4cc(Cl)ccc43)CC2)c1 [Example 266, 3-(1-(5-chloro-3-(4-(5-cyclopentyl-1,3,4-oxadiazol-2-yl)phenyl)-2-oxo-2,3-dihydro-1H-benzo[d]imidazol-1-yl)cyclopropyl)benzoic acid] |
| < 10 | O=C(O)c1cc(F)cc(C2(n3c(=O)n(-c4ccc(N5CCC(F)(F)CC5)cc4)c4cc(Cl)ccc43)CC2)c1 [Example 197, 3-(1-(5-chloro-3-(4-(4,4-difluoropiperidin-1-yl)phenyl)-2-oxo-2,3-dihydro-1H-benzo[d]imidazol-1-yl)cyclopropyl)-5-fluorobenzoic acid] |
| < 10 | O=C(O)c1cccc(C2(n3c(=O)n(-c4ccc(-c5nnc(C6CCOCC6)o5)cc4)c4cc(Cl)ccc43)CC2)c1 [Example 267, 3-(1-(5-chloro-2-oxo-3-(4-(5-(tetrahydro-2H-pyran-4-yl)-1,3,4-oxadiazol-2-yl)phenyl)-2,3-dihydro-1H-benzo[d]imidazol-1-yl)cyclopropyl)benzoic acid] |
| < 10 | CCCn1cc(-c2ccc(-n3c(=O)n(C4(c5cccc(C(=O)O)c5)CC4)c4ccc(Cl)cc43)cc2)cn1 [Example 269, 3-(1-(5-chloro-2-oxo-3-(4-(1-propyl-1H-pyrazol-4-yl)phenyl)-2,3-dihydro-1H-benzo[d]imidazol-1-yl)cyclopropyl)benzoic acid] |
| < 10 | CN1CCOc2cc(-n3c(=O)n(C4(c5cc(F)cc(C(=O)O)c5)CC4)c4ccc(Cl)cc43)ccc21 [Example 255, 3-(1-(5-chloro-3-(4-methyl-3,4-dihydro-2H-benzo[b][1,4]oxazin-7-yl)-2-oxo-2,3-dihydro-1H-benzo[d]imidazol-1-yl)cyclopropyl)-5-fluorobenzoic acid] |
| < 10 | O=C(O)c1cccc(C2(n3c(=O)n(-c4ccc(CN5CCCC5=O)cc4)c4cc(Cl)ccc43)CC2)c1 [Example 236, 3-(1-(5-chloro-2-oxo-3-(4-((2-oxopyrrolidin-1-yl)methyl)phenyl)-2,3-dihydro-1H-benzo[d]imidazol-1-yl)cyclopropyl)benzoic acid] |
| < 10 | O=C(O)c1cccc(C2(n3c(=O)n(-c4ccc(C5=CCOCC5)cc4)c4cc(Cl)ccc43)CC2)c1 [Example 121, 3-(1-(5-chloro-3-(4-(3,6-dihydro-2H-pyran-4-yl)phenyl)-2-oxo-2,3-dihydro-1H-benzo[d]imidazol-1-yl)cyclopropyl)benzoic acid] |
| < 10 | O=C(O)c1cc(F)cc(C2(n3c(=O)n(-c4ccc(N5CC(F)(F)C5)cc4)c4cc(Cl)ccc43)CC2)c1 [Example 194, 3-(1-(5-chloro-3-(4-(3,3-difluoroazetidin-1-yl)phenyl)-2-oxo-2,3-dihydro-1H-benzo[d]imidazol-1-yl)cyclopropyl)-5-fluorobenzoic acid] |
| < 10 | O=C(O)c1cccc(C2(n3c(=O)n(-c4ccc(S(=O)(=O)NC5CC5)cc4)c4cc(Cl)ccc43)CC2)c1 [Example 211, 3-(1-(5-chloro-3-(4-(N-cyclopropylsulfamoyl)phenyl)-2-oxo-2,3-dihydro-1H-benzo[d]imidazol-1-yl)cyclopropyl)benzoic acid] |
| < 10 | O=C(O)c1cccc(C2(n3c(=O)n(-c4ccc(C5CCN(C6COC6)CC5)cc4)c4cc(Cl)ccc43)CC2)c1 [Example 260, 3-(1-(5-chloro-3-(4-(1-(oxetan-3-yl)piperidin-4-yl)phenyl)-2-oxo-2,3-dihydro-1H-benzo[d]imidazol-1-yl)cyclopropyl)benzoic acid] |
